Test results as given in PubChem BioAssay AID248 (DTP/NCI, 2004).
Values joined by “and” are separate entries in the source; they are usually repeats but may differ in a detail not shown here. Identical values can stand only once. Inconclusive results and toxic doses are left out. No stated cut-off is given here; in the data, active means T/C of 150% or more; inactive means T/C below 125%.

Test system: L1210 leukemia ip in BDF1 mice, survival T/C
Assay: NCI In Vivo Anticancer Drug Screen. Data for tumor model L1210 Leukemia (intraperitoneal) in B6D2F1 (BDF1) mice
Settings: endpoint: mean survival time, higher = longer survival
Procedure, shortened: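 Survival endpoint. Drug-treated group vs vehicle group, expressed as T divided by C. Tumor passaged by transplantation.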

[1] = dose: 100.0 mg/kg/injection, schedule: Q01DX001 (ip), vehicle: saline
[2] = dose: 100.0 mg/kg/injection, schedule: Q04DX003 (ip), vehicle: saline
[3] = dose: 200.0 mg/kg/injection, schedule: Q04DX003 (ip), vehicle: saline
[4] = dose: 400.0 mg/kg/injection, schedule: Q04DX003 (ip), vehicle: saline
[5] = dose: 50.0 mg/kg/injection, schedule: Q01DX001 (ip), vehicle: carboxymethylcellulose (CMC)
[6] = dose: 100.0 mg/kg/injection, schedule: Q01DX001 (ip), vehicle: carboxymethylcellulose (CMC)
[7] = dose: 100.0 mg/kg/injection, schedule: Q01DX009 (ip), vehicle: saline with Tween-80
[8] = dose: 200.0 mg/kg/injection, schedule: Q01DX009 (ip), vehicle: saline with Tween-80
[9] = dose: 400.0 mg/kg/injection, schedule: Q01DX001 (ip), vehicle: carboxymethylcellulose (CMC)
[10] = dose: 100.0 mg/kg/injection, schedule: Q01DX009 (ip), vehicle: Klucel (hydroxypropylcellulose) (HPC)
[11] = dose: 200.0 mg/kg/injection, schedule: Q01DX009 (ip), vehicle: Klucel (hydroxypropylcellulose) (HPC)
[12] = dose: 400.0 mg/kg/injection, schedule: Q01DX009 (ip), vehicle: Klucel (hydroxypropylcellulose) (HPC)
[13] = dose: 100.0 mg/kg/injection, schedule: Q04DX003 (ip), vehicle: Klucel (hydroxypropylcellulose) (HPC)
[14] = dose: 200.0 mg/kg/injection, schedule: Q04DX003 (ip), vehicle: Klucel (hydroxypropylcellulose) (HPC)
[15] = dose: 400.0 mg/kg/injection, schedule: Q04DX003 (ip), vehicle: Klucel (hydroxypropylcellulose) (HPC)
[16] = dose: 200.0 mg/kg/injection, schedule: Q01DX001 (ip), vehicle: carboxymethylcellulose (CMC)

Measured: T/C

O=C(Nc1ccc(C2=NCCN2)cc1)c1ccc(Cl)c(C(=O)Nc2ccc(C3=NCCN3)cc2)c1
inactive: dose: 2.0 mg/kg/injection, schedule: Q01DX Z (ip), vehicle: carboxymethylcellulose (CMC) 97 % of control | dose: 3.75 mg/kg/injection, schedule: Q01DX Z (ip), vehicle: water 102 % of control | dose: 4.0 mg/kg/injection, schedule: Q01DX Z (ip), vehicle: carboxymethylcellulose (CMC) 98 % of control | dose: 7.5 mg/kg/injection, schedule: Q01DX Z (ip), vehicle: carboxymethylcellulose (CMC) 106 % of control | dose: 7.5 mg/kg/injection, schedule: Q01DX Z (ip), vehicle: water 102 % of control | dose: 15.0 mg/kg/injection, schedule: Q01DX Z (ip), vehicle: carboxymethylcellulose (CMC) 95 % of control | dose: 15.0 mg/kg/injection, schedule: Q01DX Z (ip), vehicle: saline 115 % of control and 92 % of control | dose: 15.0 mg/kg/injection, schedule: Q01DX Z (ip), vehicle: water 106 % of control | dose: 30.0 mg/kg/injection, schedule: Q01DX Z (ip), vehicle: saline 118 % of control and 97 % of control | dose: 60.0 mg/kg/injection, schedule: Q01DX Z (ip), vehicle: saline 100 % of control

BrC12CCC(CC1)C1(Br)CCC2CC1
inactive: [1] 102 % of control | [2] 86 % of control | dose: 200.0 mg/kg/injection, schedule: Q01DX001 (ip), vehicle: saline 96 % of control | [3] 91 % of control | dose: 400.0 mg/kg/injection, schedule: Q01DX001 (ip), vehicle: saline 89 % of control | [4] 86 % of control

CC(=O)NC(C)(C)Cc1ccccc1
inactive: [5] 89 % of control | [6] 94 % of control | [7] 111 % of control | [8] 101 % of control | [9] 94 % of control | dose: 400.0 mg/kg/injection, schedule: Q01DX009 (ip), vehicle: saline with Tween-80 86 % of control

CC(=O)Oc1ccc(Cl)cc1Cl
inactive: dose: 100.0 mg/kg/injection, schedule: Q04DX003 (ip), vehicle: saline with Tween-80 100 % of control | dose: 200.0 mg/kg/injection, schedule: Q04DX003 (ip), vehicle: saline with Tween-80 97 % of control

CCN(c1ccccc1)P(I)(c1ccccc1)(c1ccccc1)c1ccccc1
inactive: dose: 1.17 mg/kg/injection, schedule: Q01DX001 (ip), vehicle: other 107 % of control | dose: 2.34 mg/kg/injection, schedule: Q01DX001 (ip), vehicle: other 114 % of control | dose: 4.69 mg/kg/injection, schedule: Q01DX001 (ip), vehicle: other 107 % of control

CCCC(=O)N1CCCC(C)C1 (stereo unspecified)
inactive: dose: 100.0 mg/kg/injection, schedule: Q04DX002 (ip), vehicle: saline 111 % of control | dose: 200.0 mg/kg/injection, schedule: Q04DX002 (ip), vehicle: saline 107 % of control | dose: 400.0 mg/kg/injection, schedule: Q04DX002 (ip), vehicle: saline 104 % of control

COCC(O)CC#N (stereo unspecified)
inactive: dose: 100.0 mg/kg/injection, schedule: Q01DX009 (ip), vehicle: saline 117 % of control | dose: 200.0 mg/kg/injection, schedule: Q01DX009 (ip), vehicle: saline 113 % of control | dose: 400.0 mg/kg/injection, schedule: Q01DX009 (ip), vehicle: saline 111 % of control

O=C(O)/C(=C/c1ccccc1)c1ccc2ccccc2c1Br
inactive: [10] 107 % of control | dose: 100.0 mg/kg/injection, schedule: Q04DX003 (ip), vehicle: other 100 % of control | [11] 95 % of control | dose: 200.0 mg/kg/injection, schedule: Q04DX003 (ip), vehicle: other 100 % of control | [12] 109 % of control | dose: 400.0 mg/kg/injection, schedule: Q04DX003 (ip), vehicle: other 95 % of control

CCN(CC)Cc1ccccn1
inactive: dose: 25.0 mg/kg/injection, schedule: Q04DX003 (ip), vehicle: saline 102 % of control | dose: 50.0 mg/kg/injection, schedule: Q04DX003 (ip), vehicle: saline 107 % of control | [2] 96 % of control

CC(C)C(=O)NNC(=O)C(C)C
inactive: [13] 100 % of control | [14] 108 % of control | [15] 106 % of control

CCOC(=O)/C=C\CBr
inactive: dose: 4.0 mg/kg/injection, schedule: Q01DX015 (ip), vehicle: carboxymethylcellulose (CMC) 95 % of control | dose: 8.0 mg/kg/injection, schedule: Q01DX015 (ip), vehicle: carboxymethylcellulose (CMC) 93 % of control | dose: 16.0 mg/kg/injection, schedule: Q01DX015 (ip), vehicle: carboxymethylcellulose (CMC) 93 % of control | dose: 32.0 mg/kg/injection, schedule: Q01DX015 (ip), vehicle: carboxymethylcellulose (CMC) 101 % of control | [1] 104 % of control

CS(=O)(=O)OCCN(CCOS(C)(=O)=O)c1ccc(C=Nc2ccc(-c3csc(-c4ccc(Br)cc4)n3)cc2)cc1
inactive: dose: 25.0 mg/kg/injection, schedule: Q01DX009 (ip), vehicle: Klucel (hydroxypropylcellulose) (HPC) 124 % of control | dose: 50.0 mg/kg/injection, schedule: Q01DX009 (ip), vehicle: Klucel (hydroxypropylcellulose) (HPC) 114 % of control

O=C(O)C1CCCCC1
inactive: [5] 96 % of control | [6] 98 % of control | [16] 104 % of control | [9] 96 % of control

O=C(/C=C\C=C\c1ccccc1)c1ccc([N+](=O)[O-])cc1
inactive: [6] 92 % of control and 89 % of control | dose: 100.0 mg/kg/injection, schedule: Q01DX009 (ip), vehicle: carboxymethylcellulose (CMC) 100 % of control and 89 % of control | dose: 100.0 mg/kg/injection, schedule: Q04DX002 (ip), vehicle: gum acacia 95 % of control and 99 % of control | dose: 100.0 mg/kg/injection, schedule: Q04DX003 (ip), vehicle: carboxymethylcellulose (CMC) 93 % of control and 86 % of control | [16] 95 % of control and 89 % of control | dose: 200.0 mg/kg/injection, schedule: Q01DX009 (ip), vehicle: carboxymethylcellulose (CMC) 90 % of control | dose: 200.0 mg/kg/injection, schedule: Q04DX002 (ip), vehicle: gum acacia 101 % of control and 89 % of control | dose: 200.0 mg/kg/injection, schedule: Q04DX003 (ip), vehicle: carboxymethylcellulose (CMC) 86 % of control and 90 % of control | [9] 92 % of control and 89 % of control | dose: 400.0 mg/kg/injection, schedule: Q01DX009 (ip), vehicle: carboxymethylcellulose (CMC) 96 % of control and 97 % of control | dose: 400.0 mg/kg/injection, schedule: Q04DX002 (ip), vehicle: gum acacia 92 % of control and 89 % of control | dose: 400.0 mg/kg/injection, schedule: Q04DX003 (ip), vehicle: carboxymethylcellulose (CMC) 90 % of control

O=C(NNC(=O)c1cccc2ccccc12)c1cc(Br)ccc1Br
inactive: [2] 97 % of control | [3] 87 % of control | [4] 100 % of control

CN=C1c2ccccc2C2(c3ccccc3)C1N2C (stereo unspecified)
inactive: [7] 95 % of control | dose: 100.0 mg/kg/injection, schedule: Q04DX003 (ip), vehicle: saline sonified 121 % of control | [8] 94 % of control | dose: 200.0 mg/kg/injection, schedule: Q04DX003 (ip), vehicle: saline sonified 108 % of control | dose: 400.0 mg/kg/injection, schedule: Q04DX003 (ip), vehicle: saline sonified 101 % of control

O=C1c2cc(Cl)cc(Cl)c2-c2c1cc(Cl)cc2[N+](=O)[O-]
inactive: [10] 97 % of control | [13] 97 % of control | [11] 95 % of control | [14] 97 % of control | [12] 97 % of control | [15] 92 % of control

Cc1c2cnccc2c(C)c2c1c1ccccc1n2CCCCl
inactive: dose: 100.0 mg/kg/injection, schedule: Q01DX001 (ip), vehicle: Klucel (hydroxypropylcellulose) (HPC) 102 % of control | [13] 96 % of control | dose: 200.0 mg/kg/injection, schedule: Q01DX001 (ip), vehicle: Klucel (hydroxypropylcellulose) (HPC) 96 % of control | [14] 94 % of control | dose: 400.0 mg/kg/injection, schedule: Q01DX001 (ip), vehicle: Klucel (hydroxypropylcellulose) (HPC) 94 % of control | [15] 96 % of control

OCC(O)COc1cccc2cccnc12 (stereo unspecified)
inactive: [2] 110 % of control | [3] 101 % of control | [4] 103 % of control
